Laboratory results: patent US20080026996A1, “Selective Vpac2 Receptor Reptide Agonists” (ELI LILLY AND COMPANY, priority 2004, published 2008)
Where no end group is shown, it is not given here.

Target: T1, rat PAC1 receptor (Rattus norvegicus, UniProt P32215)
T1 construct: expressed in transfected cells; host or cells: CHO cells, crude membranes
T1 sequence (P32215 20-523): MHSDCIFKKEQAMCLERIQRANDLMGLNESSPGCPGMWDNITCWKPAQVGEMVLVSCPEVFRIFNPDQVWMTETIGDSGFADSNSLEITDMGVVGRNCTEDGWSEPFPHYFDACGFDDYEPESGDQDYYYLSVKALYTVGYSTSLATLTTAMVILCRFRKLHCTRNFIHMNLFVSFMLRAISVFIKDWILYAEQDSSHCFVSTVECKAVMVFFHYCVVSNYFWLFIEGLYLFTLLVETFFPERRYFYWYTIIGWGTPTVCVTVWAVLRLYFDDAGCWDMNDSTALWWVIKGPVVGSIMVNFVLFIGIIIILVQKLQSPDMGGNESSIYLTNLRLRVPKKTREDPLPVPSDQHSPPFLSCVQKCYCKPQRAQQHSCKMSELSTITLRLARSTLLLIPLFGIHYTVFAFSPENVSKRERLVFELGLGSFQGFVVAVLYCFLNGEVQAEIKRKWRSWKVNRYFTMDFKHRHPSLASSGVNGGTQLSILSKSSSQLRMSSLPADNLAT
Assay: Adenylate cyclase assay on recombinant rat PAC1 receptor expressed in CHO cells
Format: biochemical

H-MHSDAVFTDNYTRLRKQVAAKKYLQSIKNKRYGGPSSGAPPPS [Agonist P104]
potency ratio compared to PACAP-27: > 1000
